# Laboratory results from ChEMBL document CHEMBL3507680, “University of Dundee, Gates Library screen for HepG2 cell viability”.
# Test: Human HepG2 cell viability assay in 384 well format
# Format: toxicity, cell-based
# Design: dose 125 nL, time 70.5 hour; concentration not given beside the values
# Conditions: HepG2 cells, read-out: Inhibition
row,SMILES,cytotoxicity at 70.5 h [%]
1,O=C(CCc1nc2cccnc2[nH]1)NCc1ccncc1,-19.4
2,Cn1c(CN2CCCCCC2)cc(=O)c(O)c1CN1CCCC1,51.6
3,Cn1c(C(=O)Nc2nc[nH]n2)cc2ccccc21,10.4
4,O=C(CCCNC(=O)c1cnccn1)Nc1ncc[nH]1,-27.2
5,COCCn1ccc2c(C(=O)NCC3CCCO3)cccc21 (configuration not stated),-8.34
6,COCCn1cc(CC(=O)Nc2nc[nH]n2)c2ccccc21,-6.37
7,COc1ccc2cc(NC(=O)CCCNc3ncccn3)cnc2c1,-30.3
8,Cc1c(C2SCC(=O)Nc3c2c(O)nn3C2CCCCC2)cnn1C (configuration not stated),-24.4
9,O=C1CSC(C(F)(F)F)c2c(O)nn(C3CCCC3)c2N1 (configuration not stated),-22.6
10,CC(C)C1SCC(=O)Nc2c1cnn2-c1ccc(Cl)cc1 (configuration not stated),-1.66
11,O=C(CCN1C(=O)CC2(CCCC2)C1=O)NCCc1nccs1,-22.6
12,Cc1nn(C)cc1C1SCC(=O)Nc2c1c(O)nn2C(C)C (configuration not stated),-31.1
13,COCCn1cc(C(=O)NC2CCS(=O)(=O)C2)c2ccccc2c1=O (configuration not stated),-14.8
14,O=C(NCCc1nccs1)[C@H](c1ccccc1)n1cnnn1,-5.33
15,Cn1cc(-c2nnc3sc(C4CC4)nn23)cn1,-4.13
16,O=C(CCc1nc2cc(Br)cnc2[nH]1)NCCCn1ccnc1,-17.5
17,CC(C)(C)C1SCC(=O)Nc2c1c(O)nn2C1CCCC1 (configuration not stated),-21.9
18,COCCn1cc(C(=O)Nc2nc3c(s2)CCC3)c2ccccc21,37
19,Cc1nn2c(-c3snnc3C)nnc2s1,27.8
20,COc1cccc(-c2cc(C(=O)Nc3nc[nH]n3)[nH]n2)c1,-11.1
21,Cc1cc(-c2nn3c(C4CC4)nnc3s2)on1,12.2
22,COc1ccc(-c2cc(C(=O)Nc3nc[nH]n3)[nH]n2)cc1,-12.1
23,Cn1ccc2c(C(=O)NCCCN3CCOCC3)cccc21,11.5

row,SMILES,cytotoxicity at 70.5 h [%]
1,Cn1cnc2cc(CCC(=O)Nc3nc[nH]n3)ccc21,-0.94
2,COc1ccc2c(c1)c(C(=O)Nc1cc(C)n(C)n1)cn2C(C)C,-0.21
3,COCCn1ccc2c(NC(=O)c3n[nH]c4c3CCCC4)cccc21,7.53
4,COc1ccc2c(ccn2CCC(=O)Nc2nc[nH]n2)c1,0.0223
5,CSCCC(Nc1nc(C)cc(C)n1)C(=O)NC1CC1 (configuration not stated),-10.9
6,O=C(C1CC(=O)N(c2n[nH]c3cc(Br)ccc23)C1)N1CCCC1 (configuration not stated),-9.16
7,Cc1nnsc1-c1nnc2sc(C(C)C)nn12,3.22
8,COCCn1cc(CC(=O)Nc2c(C)nn(C)c2C)c2ccccc21,-5.58
9,Cc1ccc(C(=O)NC2CC2)c(-n2cnnn2)c1C,-17.7
10,COC(=O)c1ccc(C2SCC(=O)Nc3c2cnn3C2CCCC2)cc1 (configuration not stated),-12.4
11,COc1cccc2c1ccn2CC(=O)Nc1nc[nH]n1,-11.8
12,Cc1cc(O)cc(=O)n1CCCC(=O)Nc1n[nH]c2cccc(F)c12,-16.5
13,CC(C)c1sc(Br)nc1C(=O)NCc1ccncc1,23
14,Cc1ncc(CNC(C)(C)CO)c2cc(C(=O)c3ccc(Br)cc3)oc12,-14.3
15,CC(C)OCCCNC(=O)C1CC(=O)N(c2n[nH]c3cccc(F)c23)C1 (configuration not stated),-23.7
16,O=C(CCc1nnc2ccccn2c1=O)NCc1ccco1,24.6
17,CC(C)Cn1cnc2ccc(NC(=O)CCCn3cccn3)cc2c1=O,-2.92
18,O=C1CSC(c2ccc(O)cc2)c2c(n(C3CCOCC3)[nH]c2=O)N1 (configuration not stated),-23.1
19,COC(=O)CC(c1cccs1)c1oc(C)cc(=O)c1O (configuration not stated),-7.87
20,COc1ccc2c(ccn2CC(=O)Nc2n[nH]c(C(C)C)n2)c1,-12.1
21,Cn1cnc2cc(NC(=O)c3n[nH]c4c3CCC4)ccc21,-3.46
22,O=C(NCCc1ccccn1)c1n[nH]c2c1CCC2,-5.6
23,COCCn1cnc2ccc(NC(=O)c3ccccn3)cc2c1=O,-9.53

row,SMILES,cytotoxicity at 70.5 h [%]
1,O=C(NC1CCCc2c1[nH]c1ccc(F)cc21)c1n[nH]c2c1CCC2 (configuration not stated),26.4
2,CC(C)c1sc(Cl)nc1C(=O)N1CCN(c2ccccn2)CC1,29.7
3,COC(=O)CNC(=O)c1nc(Cl)sc1C(C)C,24.5
4,CN(C)CCCn1cnc2cc(NC(=O)c3n[nH]c4c3CCC4)ccc21,-4.15
5,COc1ccc(N2CCN(C(=O)c3nc(Cl)sc3C(C)C)CC2)cc1,-18.9
6,COc1cn(CC(=O)N2CCN(c3ccc(Cl)cc3)CC2)c(C)cc1=O,23.5
7,COC(=O)CC(c1cccc(OC(F)F)c1)c1oc(C)cc(=O)c1O (configuration not stated),7.18
8,COc1ccc2nnc(CCCC(=O)NCCc3ccncc3)n2n1,-5
9,Cc1ccc(CN2CC[C@@H]3CN(S(C)(=O)=O)CCO[C@@H]3C2)o1,7.49
10,Cc1cnc(N2C[C@@H]3[C@@H](C(=O)NC(C)C)CCS(=O)(=O)[C@@H]3C2)nc1,18
11,O=C(NC1CCC1)[C@H]1C[C@H]2NCCO[C@@H]2C1,4.07
12,O=C(NC1CCCCC1)N1C[C@@H]2OCCN(C(=O)c3ccco3)[C@@H]2C1,0.645
13,COc1cc(N2CC[C@@H](OC)[C@@H]2Cc2ccccc2)ncn1,-1.02
14,O=C(N1CCOCC1)N1C[C@@H]2OCCN(C(=O)c3ccco3)[C@@H]2C1,-1.55
15,CC1CC2(CCN(C(=O)c3csnn3)CC2)c2ccccc21 (configuration not stated),0.655
16,CC(C)Nc1nc2c(c(NC3CC3)n1)CCN(C(=O)C1CCOC1)CC2 (configuration not stated),1.81
17,CNC(=O)C1CC2(CCN(C(=O)c3csnn3)CC2)c2ccccc21 (configuration not stated),0.474
18,Cc1cc(CN2C[C@@H]3CN(Cc4ccsc4)CCO[C@@H]3C2)no1,7.7
19,COCCN(C)C(=O)c1nc2c(s1)CCCN2C,11.8
20,CC(C)N1CCCc2sc(C(=O)NC3CC3)nc21,8.47
21,COCCN(C)C(=O)c1nc2c(s1)CCCN2c1ncccn1,-3.25
22,CC(C)NC(=O)[C@H]1CCS(=O)(=O)[C@@H]2CN(c3ncc(F)cn3)C[C@H]12,-2.87
23,O=C(c1cnccn1)N1CC[C@H]2[C@H]1CCN2S(=O)(=O)C1CC1,-4.25

row,SMILES,cytotoxicity at 70.5 h [%]
1,COCCO[C@H]1CCN(c2cc(OC)ncn2)[C@H]1Cc1ccncc1,-1.44
2,O=C(c1ccnnc1)N1CC[C@H]2[C@H]1CCN2S(=O)(=O)C1CC1,-0.791
3,Cn1nccc1-c1nc2c(cc1C(=O)O)CCN(CC1CC1)CC2,12.7
4,CCC1=N[C@@]2(CC[C@@H]3CN(CC4CC4)C[C@@H]32)C(=O)N1,7.37
5,CN(C)C(=O)N1CCCC2(CCN(Cc3ccc(Cl)c(F)c3)C2)C1 (configuration not stated),-6.53
6,CC(NC(=O)NCCCN1CCc2ccccc2C1)c1nncn1C (configuration not stated),7.19
7,CS(=O)(=O)NCCC(=O)Nc1cnn(-c2ccccc2Cl)c1,-11.9
8,CCCc1nc(C(C)(C)NC(=O)C2CC(=O)N(CCOC)C2)no1 (configuration not stated),-10.7
9,CCCc1nc(C(C)(C)NC(=O)C2CC(=O)N(C3CC3)C2)no1 (configuration not stated),-6.42
10,CC(NC(=O)NCCCN1CCCCCC1=O)c1nncn1C (configuration not stated),10.2
11,COc1c(CNCCNC(=O)c2ccc(C)cc2)c(C(C)C)nn1C,-8.14
12,CCOc1cc(C)nc(N2CCN(C(=O)c3ccncc3)CC2)n1,5.92
13,CCOc1cc(C)nc(N2CCN(C(=O)CN(C)C3CC3)CC2)n1,-9.22
14,CCOc1cc(C)nc(N2CCN(C(=O)c3cc(C)on3)CC2)n1,-1.38
15,CCOc1cc(C)nc(N2CCN(C(=O)c3csnn3)CC2)n1,-12.5
16,c1ccc(Cc2noc(CN3CCOC(Cn4cncn4)C3)n2)cc1 (configuration not stated),12
17,Cc1cc(C(=O)N2CCCC(c3cc(C(F)(F)F)[nH]n3)C2)[nH]n1 (configuration not stated),3.57
18,Cc1cc(C(=O)N2CCCC(c3cc(C(F)(F)F)[nH]n3)C2)on1 (configuration not stated),-4.58
19,Cc1ccc(C(=O)NS(=O)(=O)c2c(Cl)cccc2Cl)c(=O)[nH]1,-5.05
20,Cc1ccc(C(=O)NS(=O)(=O)c2ccccc2Br)c(=O)[nH]1,-7.74
21,Cn1c(C2CC2)nc2c1CCN(Cc1nc(-c3ccsc3)no1)C2,-10.5
22,Cc1[nH]ncc1C(=O)N1CCCC(c2ccn[nH]2)C1 (configuration not stated),-12.2
23,COc1ccc(CCN(C)C2CCCN(Cc3noc(C)n3)C2)cc1 (configuration not stated),25

row,SMILES,cytotoxicity at 70.5 h [%]
1,O=C(CN1CCCC1c1noc(C2CC2)n1)NCCc1ccsc1 (configuration not stated),4.35
2,CC1CN(C)c2ccccc2N(C(=O)c2ccc(=O)n(C)c2)C1 (configuration not stated),6.89
3,CN(Cc1nccn1C)C1CCN(CCc2ccccn2)CC1,0.568
4,COCCN1CCN(CCS(C)(=O)=O)CC1C (configuration not stated),8.39
5,N#Cc1cc(F)ccc1CN1CCCC1Cn1cccn1 (configuration not stated),-5.11
6,COc1c(C2CCCN2CC(=O)Nc2cc(C)on2)c(C)nn1C (configuration not stated),12.2
7,COCCCN1CCN(CCOC)C(C)C1 (configuration not stated),0.867
8,N#Cc1ccc(CN2CCCCC2Cn2cccn2)cc1 (configuration not stated),16
9,Cc1ncc(CNCCO)c2cc(C(=O)c3ccc(Br)cc3)oc12,-18
10,Cc1ncc(CNCC(C)O)c2cc(C(=O)c3ccc(Br)cc3)oc12 (configuration not stated),-16.1
11,Cn1nnc2c1CCN(Cc1ccco1)C2COCc1ccccc1 (configuration not stated),1.81
12,CCN(C)c1ncnc2c1CCN(C(=O)NCc1cccnc1)CC2,0.595
13,CN(C)C(=O)NCc1nnn2c1CN(CC1CCOCC1)CCC2,0.222
14,Cn1cc(CN2CCc3c(nnn3C)C2COCc2ccccc2)cn1 (configuration not stated),32.3
15,COCCO[C@H]1CCN(c2cc(OC)ncn2)[C@H]1Cc1cccnc1,7.05
16,COc1cc(N2C[C@H]3CN(C(=O)c4cccnc4)C[C@H]3C2)ncn1,-2.8
17,Cc1cc(CN2C[C@@H]3CN(C(=O)c4ccco4)CCO[C@@H]3C2)no1,-5.36
18,Cc1nc2c(c(NC(C)C)n1)CCN(C(=O)c1cc[nH]n1)CC2,-8.54
19,c1ccc(CN2CCOC3(COCCN(c4ncccn4)C3)C2)nc1 (configuration not stated),-12.3
20,CCC1=N[C@@]2(CC[C@@H]3CN(Cc4ccccc4C)C[C@@H]32)C(=O)N1,-4.43
